# Experimental data reported in PubChem BioAssay (NCI).
# Several values for one entry are separate records, joined by “and”; a condition that tells them apart may be missing. Equal values may be shown once.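 Test compounds were applied to cells in 96-well plates for 48 hours at 5 doses. GI50 marks 50% less growth. TGI is the concentration that stops growth completely.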
# How the values were obtained:
# Experiment in all cases: NCI tumour cell line growth inhibition, 48 h
# [1] = tested on: DU-145 prostate
# [2] = tested on: A549 NSCLC
# [3] = tested on: OVCAR-8 ovarian
# [4] = tested on: RXF 393 renal
# [5] = tested on: MCF7 breast
# [6] = tested on: M14 melanoma
# [7] = tested on: UACC-62 melanoma
# [8] = tested on: SF-295 CNS
# [9] = tested on: T-47D breast
# [10] = tested on: SW-620 colon
# [11] = tested on: SK-MEL-28 melanoma
compound,measurement,setting,value
CC(C)CC1c2[nH]c3ccccc3c2C[C@H]2C(=O)NC(CCC(=O)OC(C)(C)C)C(=O)N12 (some centres undefined),TGI,[1],> 100 µM
same,TGI,[2],> 100 µM
same,TGI,[3],> 100 µM
same,TGI,[4],72 µM
same,TGI,[5],> 100 µM
same,TGI,[6],> 100 µM
same,TGI,[7],> 100 µM
same,TGI,[8],41.1 µM
same,TGI,[9],49.7 µM
same,TGI,[10],> 100 µM
same,TGI,[11],> 100 µM
Cn1c2nc3ccccc3c-2cc2ccccc21,TGI,[1],> 100 µM
same,GI50,[2],3.38 µM and 7.11 µM
same,TGI,[2],33.2 µM and 88.7 µM
same,GI50,[3],2.48 µM and 7.18 µM
same,TGI,[3],13.6 µM and > 100 µM
same,GI50,[4],3.45 µM and 7.68 µM
same,TGI,[4],14.8 µM and 20.1 µM
same,TGI,[5],> 34.8 µM and 36.9 µM
same,GI50,[6],4.29 µM and 11.2 µM
same,TGI,[6],> 42.2 µM and 23.6 µM
same,GI50,[7],3.05 µM and 8.55 µM
same,TGI,[7],8.85 µM and 20.8 µM
same,TGI,[8],> 40.5 µM and 20.8 µM
same,TGI,[9],> 100 µM
same,TGI,[10],> 48.7 µM and 39 µM
same,GI50,[11],4.87 µM and 10.8 µM
same,TGI,[11],> 43.2 µM and 23.1 µM
N#CS/C(Cl)=C(/C(Cl)=C(Cl)Cl)[N+](=O)[O-],TGI,[1],> 100 µM
same,TGI,[2],> 100 µM
same,TGI,[3],> 100 µM
same,TGI,[4],> 100 µM
same,TGI,[5],> 100 µM
same,TGI,[6],> 100 µM
same,TGI,[7],> 100 µM
same,TGI,[8],> 100 µM
same,TGI,[9],> 100 µM
same,TGI,[10],> 100 µM
same,TGI,[11],86.5 µM
CC1=C(OC2OC(CO)C(O)C(O)C2O)C(=O)C[C@H]2C1=CC[C@@H]1[C@@]2(C)C(=O)C[C@]2(C)[C@@H]([C@@](C)(O)C(=O)CCC(C)(C)O)[C@H](O)C[C@@]12C (some centres undefined),TGI,[1],> 100 µM
same,TGI,[2],> 100 µM
same,TGI,[3],> 100 µM
same,TGI,[4],> 100 µM
same,TGI,[5],> 100 µM
same,TGI,[6],> 100 µM
same,TGI,[7],> 100 µM
same,TGI,[8],> 100 µM
same,TGI,[9],> 100 µM
same,TGI,[10],> 100 µM
same,TGI,[11],> 100 µM
CNC(=O)CCNC(=O)CCC(=O)OC,TGI,[1],> 100 µM
same,TGI,[2],> 100 µM
same,TGI,[3],> 100 µM
same,TGI,[4],> 100 µM
same,TGI,[5],> 100 µM
same,TGI,[6],> 100 µM
same,TGI,[7],> 100 µM
same,TGI,[8],> 100 µM
same,TGI,[9],> 100 µM
same,TGI,[10],> 100 µM
same,TGI,[11],> 100 µM
O=C1N=C(c2ccccc2)O/C1=C\c1ccccc1,TGI,[1],> 100 µM
same,TGI,[2],> 100 µM
same,TGI,[3],> 100 µM
same,TGI,[4],> 100 µM
same,TGI,[5],> 100 µM
same,TGI,[6],> 100 µM
same,TGI,[7],> 100 µM
same,TGI,[8],> 100 µM
same,TGI,[9],> 100 µM
same,TGI,[10],> 100 µM
same,TGI,[11],> 100 µM
CC1C[C@]2(C)C(=S)Nc3ccccc3[C@@H]2Nc2ccccc21 (some centres undefined),TGI,[1],17.5 µM
same,TGI,[2],37.8 µM
same,TGI,[3],29.5 µM
same,TGI,[4],34.8 µM
same,TGI,[5],27.3 µM
same,TGI,[6],32.4 µM
same,TGI,[7],34.4 µM
same,TGI,[8],37.9 µM
same,TGI,[9],41 µM
same,TGI,[10],55.7 µM
same,TGI,[11],12.7 µM
COc1ccc(OC)c2nc3c(C(=O)NCCN(C)C)cccc3nc12,TGI,[1],> 100 µM
same,TGI,[2],> 34.7 µM
same,TGI,[3],17.7 µM
same,TGI,[4],23.2 µM
same,TGI,[5],> 29.8 µM
same,TGI,[6],15.8 µM
same,TGI,[7],> 49.3 µM
same,TGI,[8],25.6 µM
same,TGI,[9],> 100 µM
same,TGI,[10],21.7 µM
same,TGI,[11],22.2 µM
O=C1CCCc2cc3c(cc21)CCC3C(=O)O (centres undefined),TGI,[1],> 100 µM
same,TGI,[2],> 100 µM
same,TGI,[3],> 100 µM
same,TGI,[4],> 100 µM
same,TGI,[5],> 100 µM
same,TGI,[6],> 100 µM
same,TGI,[7],> 100 µM
same,TGI,[8],> 100 µM
same,TGI,[9],> 100 µM
same,TGI,[10],> 100 µM
same,TGI,[11],> 100 µM
Cc1ccc(S(=O)(=O)NNC(=S)Nc2cccc3ccccc23)cc1,TGI,[1],> 100 µM
same,TGI,[2],> 100 µM
same,TGI,[3],> 100 µM
same,TGI,[4],> 100 µM
same,TGI,[5],> 100 µM
same,TGI,[6],> 100 µM
same,TGI,[7],> 100 µM
same,TGI,[8],> 100 µM
same,TGI,[9],> 100 µM
same,TGI,[10],> 100 µM
same,TGI,[11],> 100 µM
CNC(=O)c1n[nH][nH]c1=O,TGI,[1],> 100 µM
same,TGI,[2],> 100 µM
same,TGI,[3],> 100 µM
same,TGI,[4],> 100 µM
same,TGI,[5],> 100 µM
same,TGI,[6],> 100 µM
same,TGI,[7],> 100 µM
same,TGI,[8],> 100 µM
same,TGI,[9],> 100 µM
same,TGI,[10],> 100 µM
same,TGI,[11],> 100 µM
NC1=NC(OCC2(CO)CCC2)C=C(NCC2(CO)CCC2)N1 (centres undefined),TGI,[1],> 100 µM
same,TGI,[2],> 100 µM
same,TGI,[3],> 100 µM
same,TGI,[4],> 100 µM
same,TGI,[5],> 100 µM
same,TGI,[6],> 100 µM
same,TGI,[7],> 100 µM
same,TGI,[8],> 100 µM
same,TGI,[9],> 100 µM
same,TGI,[10],> 100 µM
same,TGI,[11],> 100 µM
CN(C)CCO/N=C1/C=C2CC[C@H]3[C@@H]4CC[C@H](O)[C@@]4(C)CC[C@@H]3[C@@]2(C)CC1,TGI,[1],45.9 µM
same,TGI,[2],> 65.2 µM
same,TGI,[3],45.5 µM
same,TGI,[4],27.7 µM
same,TGI,[5],86 µM
same,TGI,[6],> 37 µM
same,TGI,[7],26 µM
same,TGI,[8],32.4 µM
same,TGI,[9],97.9 µM
same,TGI,[10],36.1 µM
same,TGI,[11],35.1 µM
O=C1/C(=C\c2cccc(Oc3ccccc3)c2)SC(c2ccccc2)N1c1ccc(Cl)cc1 (centres undefined),TGI,[1],> 100 µM
same,TGI,[2],> 100 µM
same,TGI,[3],> 100 µM
same,TGI,[4],> 100 µM
same,TGI,[5],> 100 µM
same,TGI,[6],> 100 µM
same,TGI,[7],> 100 µM
same,TGI,[8],> 100 µM
same,TGI,[9],> 100 µM
same,TGI,[10],> 100 µM
same,TGI,[11],> 100 µM
COc1cc(-c2coc3c(OC)c(OC4OC(CO)C(O)C(O)C4O)c(OC)cc3c2=O)cc(OC)c1C (centres undefined),TGI,[1],26.8 µM
same,TGI,[2],> 55.6 µM
same,TGI,[3],25.3 µM
same,TGI,[4],8.85 µM
same,TGI,[5],25.8 µM
same,TGI,[6],23.2 µM
same,TGI,[7],17.2 µM
same,TGI,[8],28.5 µM
same,TGI,[9],45.1 µM
same,TGI,[10],> 41.3 µM
same,TGI,[11],> 28.4 µM
CC(=O)CCC[C@@H](C)[C@@H]1O[C@H]([C@@]2(C)CCC(=O)O2)C[C@H]2C(CSc3ccccc3)C(=O)O[C@@H]12 (some centres undefined),TGI,[1],29.1 µM
same,TGI,[2],44.1 µM
same,TGI,[3],> 50.8 µM
same,TGI,[4],15.9 µM
same,TGI,[5],24.9 µM
same,TGI,[6],26.8 µM
same,TGI,[7],28.5 µM
same,TGI,[8],> 66 µM
same,TGI,[9],38 µM
same,TGI,[10],28.8 µM
same,TGI,[11],41.7 µM
CC(=O)O[C@H]1C(=O)[C@@]2(C)[C@H]([C@H](OC(=O)C3CCCCC3)[C@]3(O)C[C@H](OC(=O)[C@H](O)[C@@H](NC(=O)C4CCCCC4)C4CCCCC4)C(C)=C1C3(C)C)[C@]1(OC(C)=O)CO[C@@H]1C[C@@H]2O,TGI,[1],2.27 µM
same,TGI,[2],20.9 µM
same,TGI,[3],5.12 µM
same,TGI,[4],0.555 µM
same,TGI,[5],4.36 µM
same,TGI,[6],1.2 µM
same,TGI,[7],3.89 µM
same,TGI,[8],0.176 µM
same,TGI,[9],3.4 µM
same,TGI,[10],25 µM
same,TGI,[11],8.55 µM
CC1(O)/C(=N/O)CC2CC1C2(C)C (centres undefined),TGI,[1],> 100 µM
same,TGI,[2],> 100 µM
same,TGI,[3],> 100 µM
same,TGI,[4],> 100 µM
same,TGI,[5],> 100 µM
same,TGI,[6],> 100 µM
same,TGI,[7],> 100 µM
same,TGI,[8],> 100 µM
same,TGI,[9],> 100 µM
same,TGI,[10],> 100 µM
same,TGI,[11],> 100 µM
